# According to patent US20230090982A1, “DRUG FOR TREATING C[…] […] […] C” (priority 2020, published 2023):
# Read-outs that look alike come from different tables or passages of the source.
# Key:
# [1] = system: Primary human gingival fibroblasts
# Description: (§1) The radioactivity of the samples was measured on a Tri-Carb 2800 TR (3-counter (PerkinElmer, USA) in an ULTIMA GOLD LLT scintillator (Perkin Elmer, USA). An aliquot of the sample (0.1 mL) was thoroughly mixed with the scintillator (0.9 mL) and the radioactivity was measured within no more than 2 h after the mixture was prepared.
# (§2) Cells were cultured on the surface of 48-well polystyrene plates.
# (§3) Primary human gingival fibroblasts and cervical adenocarcinoma HeLa cells were used as cell cultures. Cells were cultured in IMDM culture medium supplemented with 10% fetal bovine serum and an antibiotic (penicillin and streptomycin) in an atmosphere of 6% CO2, at 37° C.
# (§4) During the experiment, the cells were placed into 48-well polystyrene plates with a well diameter of 1 cm, in the amount of 12 thousand cells per well, in triplicate for each type of sample (in 0.5 ml of culture medium). […] The cell suspension was sedimented by centrifugation at 800 g for 10 min, and aliquots were taken from the trypsin supernatant. The cell precipitation was resuspended in 220 μl of saline and 2 aliquots of 100 μl were taken to measure the radioactivity of the samples.
# [2] = in water, alcohol; cited from earlier work
# [3] = system: HeLa cervical adenocarcinoma cells
# Description: as §1, §2, §3, §4
# [4] = 0.074% formaldehyde diluted in culture medium, compared with 0.11% formaldehyde solution
# [5] = 0.074% formaldehyde in saline, compared with incubation in 0.11% formaldehyde solution
# [6] = incubation in culture medium, added formaldehyde 0.00056%
# [7] = incubation in culture medium, added formaldehyde 0.0028%
# [8] = incubation in culture medium, added formaldehyde 0.014%
# [9] = incubation in culture medium, added formaldehyde 0.074%
# [10] = incubation in culture medium, added formaldehyde 0.11%
# [11] = incubation in saline, added formaldehyde 0.00056%
# [12] = incubation in saline, added formaldehyde 0.0028%
# [13] = incubation in saline, added formaldehyde 0.014%
# [14] = incubation in saline, added formaldehyde 0.074%
# [15] = incubation in saline, added formaldehyde 0.11%
compound,measurement,setting,value
C=O [formaldehyde],activation of the production of endogenous formaldehyde,[1]; [4],20.6%
same,activation of the production of endogenous formaldehyde,[1]; [5],18.4%
same,"Formaldehyde accumulation, Cells, % of what added",[1]; [6],0.25 ± 0.02 % of what added
same,"Formaldehyde accumulation, Trypsin eluate, % of what added",[1]; [6],0.23 ± 0.03 % of what added
same,"Formaldehyde accumulation, Cells, % of what added",[1]; [7],0.55 ± 0.07 % of what added
same,"Formaldehyde accumulation, Trypsin eluate, % of what added",[1]; [7],0.56 ± 0.16 % of what added
same,"Formaldehyde accumulation, Cells, % of what added",[1]; [8],1.25 ± 0.13 % of what added
same,"Formaldehyde accumulation, Trypsin eluate, % of what added",[1]; [8],1.36 ± 0.15 % of what added
same,"Formaldehyde accumulation, Cells, % of what added",[1]; [9],1.7 ± 0.11 % of what added
same,"Formaldehyde accumulation, Trypsin eluate, % of what added",[1]; [9],2.33 ± 0.34 % of what added
same,"Formaldehyde accumulation, Cells, % of what added",[1]; [10],1.35 ± 0.09 % of what added
same,"Formaldehyde accumulation, Trypsin eluate, % of what added",[1]; [10],1.77 ± 0.16 % of what added
same,"Formaldehyde accumulation, Cells, % of what added",[1]; [11],0.53 ± 0.04 % of what added
same,"Formaldehyde accumulation, Trypsin eluate, % of what added",[1]; [11],0.45 ± 0.03 % of what added
same,"Formaldehyde accumulation, Cells, % of what added",[1]; [12],1.26 ± 0.11 % of what added
same,"Formaldehyde accumulation, Trypsin eluate, % of what added",[1]; [12],1.73 ± 0.23 % of what added
same,"Formaldehyde accumulation, Cells, % of what added",[1]; [13],3.11 ± 0.27 % of what added
same,"Formaldehyde accumulation, Trypsin eluate, % of what added",[1]; [13],3.41 ± 0.44 % of what added
same,"Formaldehyde accumulation, Cells, % of what added",[1]; [14],2.12 ± 0.33 % of what added
same,"Formaldehyde accumulation, Trypsin eluate, % of what added",[1]; [14],5.16 ± 0.85 % of what added
same,"Formaldehyde accumulation, Cells, % of what added",[1]; [15],1.73 ± 0.23 % of what added
same,"Formaldehyde accumulation, Trypsin eluate, % of what added",[1]; [15],3.71 ± 0.45 % of what added
same,solubility,[2],"well dissolve in water, alcohol"
same,activation of the production of endogenous formaldehyde,[3]; [4],30.2%
same,activation of the production of endogenous formaldehyde,[3]; [5],32%
same,"Formaldehyde accumulation, Cells, % of what added",[3]; [6],0.28 ± 0.03 % of what added
same,"Formaldehyde accumulation, Trypsin eluate, % of what added",[3]; [6],0.20 ± 0.02 % of what added
same,"Formaldehyde accumulation, Cells, % of what added",[3]; [7],0.64 ± 0.13 % of what added
same,"Formaldehyde accumulation, Trypsin eluate, % of what added",[3]; [7],0.45 ± 0.06 % of what added
same,"Formaldehyde accumulation, Cells, % of what added",[3]; [8],1.52 ± 0.09 % of what added
same,"Formaldehyde accumulation, Trypsin eluate, % of what added",[3]; [8],1.92 ± 0.11 % of what added
same,"Formaldehyde accumulation, Cells, % of what added",[3]; [9],2.75 ± 0.18 % of what added
same,"Formaldehyde accumulation, Trypsin eluate, % of what added",[3]; [9],2.54 ± 0.14 % of what added
same,"Formaldehyde accumulation, Cells, % of what added",[3]; [10],1.92 ± 0.16 % of what added
same,"Formaldehyde accumulation, Trypsin eluate, % of what added",[3]; [10],1.83 ± 0.12 % of what added
same,"Formaldehyde accumulation, Cells, % of what added",[3]; [11],0.62 ± 0.04 % of what added
same,"Formaldehyde accumulation, Trypsin eluate, % of what added",[3]; [11],0.57 ± 0.04 % of what added
same,"Formaldehyde accumulation, Cells, % of what added",[3]; [12],1.34 ± 0.05 % of what added
same,"Formaldehyde accumulation, Trypsin eluate, % of what added",[3]; [12],2.14 ± 0.08 % of what added
same,"Formaldehyde accumulation, Cells, % of what added",[3]; [13],2.65 ± 0.11 % of what added
same,"Formaldehyde accumulation, Trypsin eluate, % of what added",[3]; [13],3.44 ± 0.19 % of what added
same,"Formaldehyde accumulation, Cells, % of what added",[3]; [14],2.75 ± 0.18 % of what added
same,"Formaldehyde accumulation, Trypsin eluate, % of what added",[3]; [14],3.32 ± 0.27 % of what added
same,"Formaldehyde accumulation, Cells, % of what added",[3]; [15],1.85 ± 0.25 % of what added
same,"Formaldehyde accumulation, Trypsin eluate, % of what added",[3]; [15],2.41 ± 0.11 % of what added
